Article PMC5307958 (Scientific Reports, 2017)
Bridges are numbered along the chain shown (N, C = ends). Where no end group is shown, it is not given here.

How the values were obtained:
[1] = tested on: mouse inferior colliculus (auditory midbrain); experiment: Sound evoked activity within excitatory receptive field (eRF), topical application on dura
[2] = tested on: auditory nerve and generators caudal to the IC; experiment: Auditory brainstem responses (ABR); format: in vivo, mouse
Description: (§1) The temperature was maintained near 25 °C.
ABR recordings were acquired after the mice were anesthetized with ketamine (120 mg/kg) and xylazine (10 mg/kg) I.P., and respiration was monitored throughout to determine when additional supplemental doses were needed. Body temperature was kept constant at 37 °C using a feedback controlled heating pad (Physitemp TCAT2-LV Controller, Clifton, NJ). Stimuli and recordings were generated digitally and controlled using a TDT RZ6 Multi-I/O Processor and their BioSig/SigGen software. Acoustic signals were played through a multi-field (MF1) magnetic speaker (TDT, Alachua, FL) with a total harmonic distortion < = 1% from 1 kHz to 50 kHz, centered 0° azimuth in regards to the animal at a distance of 10 cm from the ear pinna. Tone bursts were presented at frequencies of 6, 12, 16, 20, 24, and 36 kHz (3 ms duration, 1 ms rise/fall time, alternating polarity) at a rate of 29 per second, attenuated in 5 dB steps from 80 dB SPL to 15 dB below threshold or 5 dB SPL, whichever was lower. Threshold was determined by visual inspection as the lowest intensity level which produced a defined wave in both replicates. All signals were calibrated using a Larsen Davis preamplifier, model 2221, with a 1/4″ microphone and a Larson Davis CAL200 Precision Acoustic Calibrator (PCB Piezotronics, Inc., Depew, NY). ABR recordings were acquired using a TDT RA4LI low-impedance digital headstage and RA4PA Medusa preamp with the active (noninverting) electrode inserted at the vertex, the reference (inverting) electrode below the left ear, and the ground electrode below the right ear. The responses were amplified (20×), filtered (300 Hz–3 kHz), and averaged using BioSig software and the System III hardware (TDT) data-acquisition system. A total of 256 tone burst signal and 150 GIN signal recordings were replicated for each acquisition, and muscle artifacts exceeding 7 μV were rejected from the averaged response. All recordings took place in a soundproof booth lined with echo-attenuating acoustic foam. ABR waveforms were analyzed using a custom MatLab program that automatically determined peak latencies and amplitudes in combination with secondary verification by an experimenter blind to the treatment group.

BK channel = settings: small molecule BK channel blocker; cited from earlier work
Excerpt: CNS pharmacological applications favor pharmaceutical agents with high affinity, specificity, amenability to large-scale synthesis and BBB permeability. Peptide drugs have the potential for high affinity and specific binding to ion channel targets, as shown by voltage-gated potassium channel (Kv) peptide toxins. In addition to natural products, phage display screens have successfully selected peptides with high target affinity. For example, a phage display screen of scorpion toxin derivatives selected a novel peptide that blocks the Kv3.1 channel in the nanomolar range[41]. Here, a phage displ ...

[3] = Blood-brain barrier crossing inferred from functional activity in the IC; format: in vivo, mouse; settings: inferred from suppression of sound evoked activity after topical (dura) or systemic (0.3 mg/kg I.P.) administration
Description: as §1

[4] = cited from earlier work
Excerpt: A pharmacological agent must cross the BBB in order to act at CNS-located targets. […] Many ion channel-targeted peptides are regarded as having low BBB permeability due to the large difference between the lethal dose when administered peripherally versus centrally. For example, the LD50 for peripherally administered dendrotoxin is in the tens of mg/kg, while it is ten thousand fold l ...

[5] = molecular target: T1, human BKα channel (ZERO isoform) expressed in HEK293 cells (Homo sapiens, UniProt Q12791); experiment: Patch-clamp recording, inside-out patches, extracellular application; format: cell-based; settings: for effect on Po (post vs. pre peptide): 500 nM linear (reduced) LS3, extracellular, any voltage, compared with 500 nM cyclic LS3
T1 construct: expressed in transfected cells; host or cells: HEK293 (ATCC), transient transfection with Lipofectamine 2000; EGFP cotransfected as a separate marker
Description: HEK293 cells (ATCC, Manassas, VA) were grown according to standard procedures. Cells were cultured at 37 °C in a 5% CO2 atmosphere in Dulbecco’s modified Eagle’s medium with L-glutamine, sodium pyruvate and 10% fetal bovine serum (Invitrogen). Cell lines were split with trypsin/EDTA in Hanks’ balanced salt solution (Invitrogen) up to 25–30 cycles. For phage display, stable lines stably expressed rSK2 or hBKα ZERO isoform. Cells were transfected (Lipofectamine 2000, Invitrogen) with hGlyRα1 and used 48 hours later. For electrophysiological recordings, cells were transfected with hBKα ZERO isoform. Enhanced green fluorescent protein (EGFP) was cotransfected as a marker. Electrophysiological recordings were made 16–72 h after transfection. Although the profile of BK channel composition varies from tissue to tissue, the ZERO BK channel splice variant is widely expressed, particularly in the nervous system, serving as a representative form for studying the modulation of BK channel gating.
Voltage-clamp recordings were performed at room temperature (22–24 °C) using an inside-out configuration on patches pulled from HEK293 cells. The extracellular solution contained the following (in mM): 2 KCl, 136 KOH, 20 HEPES, 2 MgCl2, adjusted to pH 7.2 with MeSO3H. In order to apply peptide to the extracellular surface, patch electrodes (7–20 MΩ in resistance) were tip-filled with normal extracellular solution and backfilled with extracellular solution containing LS3. Enough normal extracellular solution was included to provide at least five minutes of peptide-free recording (determined by plotting Po vs. time). The intracellular solution (in the bath) contained the following (in mM): 6 KCl, 132 KOH, 20 HEPES, adjusted to pH 7.2 with MeSO3H. To achieve 750 nM free Ca^2+, […] and 5 mM EGTA were included, a ratio verified by measurement with a Ca^2+-sensitive electrode. Voltage-clamp recordings made with an Axopatch 200 A amplifier and custom macros in IgorPro. Analysis was performed with QUB (http://www.qub.buffalo.edu), including Po, mean open time and three component exponential fits to closed dwell times. Group means±SEM for post-peptide measures were plotted relative to pre-peptide values and compared with pre values via planned paired t-tests.

[6] = molecular target: T2, human BKα channel (ZERO isoform) (human) (UniProt O95259)
T2 sequence: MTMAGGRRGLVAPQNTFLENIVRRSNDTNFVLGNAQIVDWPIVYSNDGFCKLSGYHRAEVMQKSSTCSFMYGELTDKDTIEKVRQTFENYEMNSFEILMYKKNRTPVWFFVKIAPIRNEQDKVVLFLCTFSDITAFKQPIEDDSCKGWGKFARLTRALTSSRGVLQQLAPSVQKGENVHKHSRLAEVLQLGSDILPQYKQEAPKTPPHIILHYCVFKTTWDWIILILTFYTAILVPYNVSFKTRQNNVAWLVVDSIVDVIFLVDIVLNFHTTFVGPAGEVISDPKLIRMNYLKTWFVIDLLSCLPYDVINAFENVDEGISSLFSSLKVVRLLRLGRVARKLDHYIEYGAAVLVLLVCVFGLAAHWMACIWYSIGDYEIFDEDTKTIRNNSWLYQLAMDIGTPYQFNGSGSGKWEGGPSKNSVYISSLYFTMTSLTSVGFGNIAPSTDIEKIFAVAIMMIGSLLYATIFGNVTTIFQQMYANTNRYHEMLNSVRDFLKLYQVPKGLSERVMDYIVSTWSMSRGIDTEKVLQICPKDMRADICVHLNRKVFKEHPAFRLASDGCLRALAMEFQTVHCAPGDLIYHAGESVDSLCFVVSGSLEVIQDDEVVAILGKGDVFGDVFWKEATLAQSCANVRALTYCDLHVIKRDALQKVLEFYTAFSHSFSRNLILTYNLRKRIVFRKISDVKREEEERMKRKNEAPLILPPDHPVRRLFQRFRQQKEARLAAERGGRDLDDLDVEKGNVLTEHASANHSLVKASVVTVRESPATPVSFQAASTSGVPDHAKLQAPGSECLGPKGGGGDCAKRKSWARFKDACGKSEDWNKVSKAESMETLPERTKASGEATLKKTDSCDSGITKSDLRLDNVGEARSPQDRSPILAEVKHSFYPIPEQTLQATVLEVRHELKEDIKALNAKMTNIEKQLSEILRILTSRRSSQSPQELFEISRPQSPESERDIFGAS

[7] = molecular target: comprehensive panel of mammalian CNS-based proteins; experiment: radioligand binding; competition binding assays (NIMH PDSP): 10 microM LS3 against known radioligands for 33 targets; percent inhibition measured 4 times for each receptor; less than 50% inhibition considered insignificant

T1 sequence (Q12791 1-1178 isoform Q12791-5): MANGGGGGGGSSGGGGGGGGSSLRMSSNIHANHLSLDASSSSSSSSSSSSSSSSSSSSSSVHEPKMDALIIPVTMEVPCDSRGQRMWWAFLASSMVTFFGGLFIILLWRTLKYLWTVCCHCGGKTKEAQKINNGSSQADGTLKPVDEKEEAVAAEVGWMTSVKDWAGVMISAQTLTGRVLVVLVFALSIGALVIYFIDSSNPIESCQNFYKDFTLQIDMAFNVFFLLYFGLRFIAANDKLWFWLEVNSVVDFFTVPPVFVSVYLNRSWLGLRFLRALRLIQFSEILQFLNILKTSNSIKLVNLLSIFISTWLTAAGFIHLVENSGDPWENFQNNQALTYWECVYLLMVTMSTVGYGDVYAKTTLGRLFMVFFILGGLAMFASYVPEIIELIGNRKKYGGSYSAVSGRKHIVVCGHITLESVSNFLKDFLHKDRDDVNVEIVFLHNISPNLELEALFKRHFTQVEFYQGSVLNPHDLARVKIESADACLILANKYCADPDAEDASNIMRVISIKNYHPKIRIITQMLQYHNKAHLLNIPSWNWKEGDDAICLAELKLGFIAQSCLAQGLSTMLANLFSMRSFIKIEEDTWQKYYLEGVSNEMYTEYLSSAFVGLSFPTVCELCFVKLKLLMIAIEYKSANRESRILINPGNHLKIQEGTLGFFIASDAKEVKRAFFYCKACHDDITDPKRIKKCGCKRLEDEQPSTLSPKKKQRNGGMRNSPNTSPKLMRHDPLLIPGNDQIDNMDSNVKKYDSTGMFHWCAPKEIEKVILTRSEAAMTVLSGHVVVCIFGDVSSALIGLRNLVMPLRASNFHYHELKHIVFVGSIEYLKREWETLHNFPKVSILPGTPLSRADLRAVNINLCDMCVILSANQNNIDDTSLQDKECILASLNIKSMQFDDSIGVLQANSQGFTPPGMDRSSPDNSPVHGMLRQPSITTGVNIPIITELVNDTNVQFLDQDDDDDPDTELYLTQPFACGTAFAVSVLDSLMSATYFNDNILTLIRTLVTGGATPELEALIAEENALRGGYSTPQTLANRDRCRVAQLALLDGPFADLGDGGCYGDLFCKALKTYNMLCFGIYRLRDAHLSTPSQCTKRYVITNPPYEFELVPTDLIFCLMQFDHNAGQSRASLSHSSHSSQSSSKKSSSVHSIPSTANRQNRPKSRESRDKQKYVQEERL

With `CC(C)(O)[C@H]1O[C@H]2CC[C@@]3(C)[C@@](O)(CC[C@H]4Cc5c([nH]c6ccccc56)[C@@]43C)C2=CC1=O` [paxilline, reference compound] the “time course of suppression of sound evoked activity” value ([1]; 1 μL of 10 μM paxilline, 51 units, F(12,430) = 4.146 P < 0.0001) was “suppression of sound evoked activity increasing out to 6 hours”, the “reduction in sound driven activity” value ([1]; 1 μL of 10 μM paxilline, 5 hours post-application, N = 5 mice) was 87% and the “reduction of maximum spike counts” value ([1]; 1 μL of 10 μM paxilline, within 30 minutes, 51 units) was 50%. For the same molecule, the maximum spike counts ([1]; 1 μL of 10 μM paxilline, within 30 minutes, baseline 375, 51 units) was 180 spikes, the “reduction of sound evoked driven activity within the RF” value ([1]; 1 μL of 10 μM stock, from baseline pre-peptide, Fig. 5A,B representative eRFs) was “approximately 50%” and the “mean ABR thresholds” value ([2]; 4 hours post I.P. injection vs. baseline, tone bursts) was “No significant effect”. For the same molecule, the “ABR peak 1 (P1) amplitude by intensity functions” value ([2]; systemic (I.P.) injection, 4 hrs vs. baseline, auditory nerve) was “Neither BK channel modulator reduced auditory nerve (P1)”, the “ABR peak 4 (P4) amplitude by intensity functions” value ([2]; systemic (I.P.) injection, 4 hrs vs. baseline, generators caudal to the IC (brainstem)) was “Neither BK channel modulator reduced auditory nerve (P1) or brainstem (P4) amplitudes” and the “IC50 (BK channel block)” value (BK channel) was “low nanomolar”. For the same molecule, the “ability to cross the BBB” value [3] was “can cross the BBB”.

For “apamin: a small Kv toxin at 18 aa (CNCKAPETALCARRCQQH-NH2; disulfide 1-11, 3-15; ends not checked; UniProt P01500 28-45, looked up)”, the CNS availability ([4]; in contrast to many ion channel-targeted peptides) is listed as “higher CNS availability” and the “effect on learning and memory-related behaviors” value ([4]; intraperitoneal injection at a similar concentration used in this paper) is listed as “alter learning and memory-related behaviors”.

In the case of dendrotoxin, the “LD50, intraventricular injection, relative to peripheral” value [4] is given as “ten thousand fold lower” and the “LD50, peripherally administered” value [4] is given as “tens”.

For “linearized version of LS3: linearized version of LS3 without the disulfide bridge (CRRGLVQVC)”, the “effect on Po (post vs. pre peptide)” value [5] was “no significant reduction in Po at any voltage”, the “effect on Po (post vs. pre peptide)” value ([5]; listed as linear peptide) was “lack of effect” and the “effect on Po (post vs. pre peptide)” value ([5]; listed as reduced form of LS3) was “did not alter Po”. For the same molecule, the “potency relative to cyclic LS3” value ([5]; linearized version without the disulfide bridge, Po) was “less potent”.

With CRRGLVQVC (disulfide 1-9) [LS3 (… with a 1–9 disulfide bridge)] the post-peptide Po relative to pre-peptide Po at 40 mV, 500 nM LS3 [6] was 0.54, the Ki [7] was > 10 µM and the percent inhibition of radioligand binding at 10 microM LS3 [7] was < 50%.
